ChEMBL document CHEMBL1806498, “Novel imidazo[1,2-a]pyridine based inhibitors of the IGF-1 receptor tyrosine kinase: optimization of the aniline” (Bioorg Med Chem Lett, 2011)

Tests used:
physchem [1] = conditions: octanol/water
physchem [2] = conditions: buffer, pH 7.4
[3] = Dissociation constant, pKa of the compound at pH 7.4 by UV spectrophotometric titration; format: physicochemical
[4] = Aqueous solubility of the compound in phosphate buffer at pH 7.4; format: physicochemical

Row | SMILES | logP (physchem [1]) | logD (physchem [2]) | pKa [3] | solubility [4]
1 | COc1cc(N2CC3CNCC(C2)O3)ccc1Nc1ncc(Cl)c(-c2cnc3ccccn23)n1 | 3.6 | 2.3 | 8.7 | –
2 | COc1cc(N2CC3COCC(C2)N3)ccc1Nc1ncc(Cl)c(-c2cnc3ccccn23)n1 | 3.1 | 3 | 6.7 | –
3 | COc1cc(N2CC3CN(CCO)CC(C2)O3)ccc1Nc1ncc(Cl)c(-c2cnc3ccccn23)n1 | – | – | 8.4 | –
4 | COc1cc(N2CCN(S(C)(=O)=O)CC2)ccc1Nc1ncc(Cl)c(-c2cnc3ccccn23)n1 | – | – | – | < 0.6 µM
